Source: article PMC7126465 (Bioorganic & Medicinal Chemistry, 2017)
Like-named read-outs stand apart in the source and are kept apart here.

Key:
[1] = test system: human embryonic lung (HEL) cells; assay: Cytotoxicity, alteration of cell morphology; format: cell-based; details: microscopically detectable alteration of cell morphology
[2] = test system: HSV; assay: organism not typed; format: cell-based, herpes simplex virus; details: for EC50: HEL, read-out: EC50 range against HSV
[3] = test system: VZV; assay: microbe, parasite or virus in culture; format: cell-based, varicella-zoster virus; details: for EC50: Human alphaherpesvirus 3, HEL, read-out: EC50 range against VZV
[4] = test system: Vaccinia virus; assay: microbe, parasite or virus in culture; format: cell-based, vaccinia virus Lederle strain; details: for EC50: read-out: EC50 (HEL) Vaccinia virus
[5] = test system: human embryonic lung (HEL) cells; assay: Cytostatic activity, inhibition of HEL cell growth; format: cell-based
[6] = test system: herpesviruses (HSV, VZV, HCMV); assay: Anti-herpesvirus activity overall; format: cell-based; details: for Anti-herpesvirus activity (in words): HEL cells
[7] = test system: HCMV; assay: microbe, parasite or virus in culture; format: cell-based, human cytomegalovirus; details: for EC50: read-out: EC50 range against HCMV
[8] = test system: HSV-2 (G); assay: Antiviral CPE inhibition, HSV-2; format: cell-based, herpes simplex virus type 2; details: read-out: EC50 (HEL) HSV-2 (G); HEL cells
[9] = test system: HSV-1 TK− KOS ACVr; assay: Antiviral CPE inhibition, TK- HSV-1 KOS ACVr in HEL cells; format: cell-based, herpes simplex virus type 1; details: read-out: EC50 (HEL) HSV-1 TK− KOS ACVr
[10] = test system: VZV TK+ (Oka); format: cell-based, varicella-zoster virus; details: read-out: EC50 (HEL) VZV TK+ (Oka); HEL cells
[11] = test system: VZV TK− (07-1); format: cell-based, varicella-zoster virus; details: read-out: EC50 (HEL) VZV TK− (07-1)
[12] = test system: HCMV (AD-169); assay: Antiviral assay, HCMV; format: cell-based, human cytomegalovirus; details: read-out: EC50 (HEL) HCMV (AD-169); HEL cells
[13] = test system: HCMV (Davis); assay: Antiviral assay, HCMV; format: cell-based, human cytomegalovirus; details: read-out: EC50 (HEL) HCMV (Davis); HEL cells

Compound: Nc1nc2c(ncn2COCCO)c(=O)[nH]1 [Acyclovir, reference compound]
- Cytotoxicity MCC (minimum cytotoxic concentration) [1]: >440 µM

Compound: O=c1[nH]c(=O)n([C@H]2C[C@H](O)[C@@H](CO)O2)cc1/C=C/Br [Brivudin, reference compound]
- Cytotoxicity MCC (minimum cytotoxic concentration) [1]: 300 µM

Compound: Nc1ccn(C[C@@H](CO)OCP(=O)(O)O)c(=O)n1.O.O [Cidofovir, reference compound]
- Cytotoxicity MCC (minimum cytotoxic concentration) [1]: ≥300 µM

Compound: Nc1cc(OCCOCP(=O)(O)O)nc(N)n1 [Compound 1, 2,4-diamino-6-[2-(phosphonomethoxy)ethoxy]pyrimidine]
- Cytotoxicity MCC (minimum cytotoxic concentration) [1]: >100 µM
- Selectivity index (SI, ratio CC50/EC50) HSV ([2]; range over HSV strains): 1.7–4.5
- Selectivity index (SI, ratio CC50/EC50) VZV ([3]; range over VZV strains): 19–44

Compound: CC(C)(C)C(=O)OCOP(=O)(COCCOc1cc(N)nc(N)n1)OCOC(=O)C(C)(C)C [Compound 2, Bis(pivaloyloxymethyl) ester of 2,4-diamino-6-[2-(phosphonomethoxy)ethoxy]pyrimidine]
- EC50 ([4]; Orthopoxvirus vaccinia, HEL): ≥ 20 µM
- Cytotoxicity MCC (minimum cytotoxic concentration) [1]: ≥100 µM
- Fold more cytostatic than PMEO-DAPy [5]: 5.5 fold
- Fold more active than PMEO-DAPy (anti-herpesvirus activity) [6]: 2 to 4.5 fold

Compound: CC(C)(C)C(=O)OCOP(=O)([O-])COCCOc1cc(N)nc(N)n1.[Na+] [Compound 3, Pivaloyloxymethyl ester of 2,4-diamino-6-[2-(phosphonomethoxy)ethoxy]-pyrimidine]
- Cytotoxicity MCC (minimum cytotoxic concentration) [1]: >100 µM
- Anti-herpesvirus activity (in words) [6]: potency and selectivity virtually identical to PMEO-DAPy

Compound: CCOC(=O)[C@H](C)NP(=O)(COCCOc1cc(N)nc(N)n1)N[C@@H](C)C(=O)OCC [Compound 5, Bis(L-alanineethyl ester) prodrug of 2,4-diamino-6-[2-(phosphonomethoxy)ethoxy]pyrimidine]
- Anti-vaccinia virus activity (in words) [4]: very low anti-vaccinia virus activity without selectivity
- Cytotoxicity MCC (minimum cytotoxic concentration) [1]: 217 µM
- Fold more active than parental drug PMEO-DAPy (HSV) [2]: 6–20 fold
- Selectivity index (SI, ratio CC50/EC50) HSV ([2]; range over HSV strains): 4–15
- Fold more active than parental drug PMEO-DAPy (VZV) [3]: 3–16 fold
- Selectivity index (SI, ratio CC50/EC50) VZV ([3]; range over VZV strains): 15–52
- EC50 ([7]; Human betaherpesvirus 5, HEL): 17 to 29 µM
- Selectivity index (SI, ratio CC50/EC50) HCMV ([7]; range over HCMV strains): ≤ 1

Compound: CC(C)OC(=O)OCOP(=O)(COCCn1cnc(N)nc1=O)OCOC(=O)OC(C)C [Compound 7, Bis[(isopropoxycarbonyl)oxymethyl] ester of 1-[2-(phosphonomethoxy)ethyl]-5-azacytosine]
- Cytotoxicity MCC (minimum cytotoxic concentration) [1]: >100 µM

Compound: CC(C)OC(=O)OCOP(=O)(O)COCCn1cnc(N)nc1=O [Compound 8, (Isopropoxycarbonyl)oxymethyl ester of 1-[2-(phosphonomethoxy)ethyl]-5-azacytosine]
- Cytotoxicity MCC (minimum cytotoxic concentration) [1]: >100 µM
- Anti-herpesvirus activity (in words) [6]: minimal or no anti-herpesvirus activities

Compound: CC(C)(C)C(=O)OCOP(=O)(COCCn1cnc(N)nc1=O)OCOC(=O)C(C)(C)C [Compound 9, Bis(pivaloyloxymethyl) ester of 1-[2-(phosphonomethoxy)ethyl]-5-azacytosine]
- Cytotoxicity MCC (minimum cytotoxic concentration) [1]: 209 µM
- EC50 [2]: 0.7 to 1.3 µM
- Selectivity index (SI, ratio CC50/EC50) HSV ([2]; range over HSV strains): 37–63
- EC50 [3]: 0.7 to 1.3 µM
- Selectivity index (SI, ratio CC50/EC50) VZV ([3]; range over VZV strains): 35–71
- EC50 ([7]; Human betaherpesvirus 5, HEL): 1 to 3 µM
- Selectivity index (SI, ratio CC50/EC50) HCMV ([7]; range over HCMV strains): 14–47

Compound: CC(C)(C)C(=O)OCOP(=O)([O-])COCCn1cnc(N)nc1=O.[Na+] [Compound 10, Pivaloyloxymethyl ester of 1-[2-(phosphonomethoxy)ethyl]-5-azacytosine, sodium salt]
- Cytotoxicity MCC (minimum cytotoxic concentration) [1]: >275 µM
- Anti-herpesvirus activity (in words) [6]: minimal or no anti-herpesvirus activities

Compound: CCOC(=O)[C@H](Cc1ccccc1)NP(=O)(COCCn1cnc(N)nc1=O)N[C@@H](Cc1ccccc1)C(=O)OCC [Compound 12, Bis(L-phenylalanineethyl ester) prodrug of 1-[2-(phosphonomethoxy)ethyl]-5-azacytosine]
- Cytotoxicity MCC (minimum cytotoxic concentration) [1]: >100 µM
- EC50 [2]: 32 to 42 µM
- EC50 [3]: 27 to 29 µM
- EC50 ([7]; Human betaherpesvirus 5, HEL): 7.5 to 15.5 µM

Compound: CCOC(=O)[C@H](Cc1ccccc1)NP(=O)(O)COCCn1cnc(N)nc1=O [Compound 13, (L-Phenylalanine ethyl ester) prodrug of 1-[2-(phosphonomethoxy)ethyl]-5-azacytosine]
- Cytotoxicity MCC (minimum cytotoxic concentration) [1]: >100 µM
- Anti-herpesvirus activity (in words) [6]: lacked activity against herpesviruses

Compound: COP(=O)(O)COCCn1cnc(N)nc1=O [Compound 14, Methyl ester of [2-(phosphonomethoxy)ethyl]-5-azacytosine]
- Cytotoxicity MCC (minimum cytotoxic concentration) [1]: >100 µM
- Anti-herpesvirus activity (in words) [6]: lacked activity against herpesviruses

Compound: CCCCCCCCCCCCCCCCCCOCCOP(=O)(COCCn1cnc(N)nc1=O)OCCOCCCCCCCCCCCCCCCCCC [Compound 15, Bis(octadecyloxyethyl) ester of 1-[2-(phosphonomethoxy)ethyl]-5-azacytosine]
- Cytotoxicity MCC (minimum cytotoxic concentration) [1]: 20 µM
- Anti-herpesvirus activity (in words) [6]: deprived of anti-herpesvirus properties

Compound: CCCCCCCCCCCCCCCCCCOCCNc1ncn(CCOCP(=O)(OCCOCCCCCCCCCCCCCCCCCC)OCCOCCCCCCCCCCCCCCCCCC)c(=O)n1 [Compound 16, Bis(octadecyloxyethyl) ester of N^4-octadecyloxyethyl-1-[2-(phosphonomethoxy)ethyl]-5-azacytosine]
- Cytotoxicity MCC (minimum cytotoxic concentration) [1]: 100 µM
- Anti-herpesvirus activity (in words) [6]: deprived of anti-herpesvirus properties

Compound: CCCCCCCCCCCCCCCCCCOCCOP(=O)(O)COCCn1cnc(N)nc1=O [Compound 17, Octadecyloxyethyl ester of 1-[2-(phosphonomethoxy)ethyl]-5-azacytosine]
- Cytotoxicity MCC (minimum cytotoxic concentration) [1]: 100 ± 0 µM
- EC50 [2]: 0.15 to 0.35 µM
- Selectivity index (SI, ratio CC50/EC50) HSV ([2]; range over HSV strains): 226–528
- EC50 [3]: 0.32 to 0.8 µM
- Selectivity index (SI, ratio CC50/EC50) VZV ([3]; range over VZV strains): 100–248
- EC50 ([7]; Human betaherpesvirus 5, HEL): 0.24 to 1.12 µM
- Selectivity index (SI, ratio CC50/EC50) HCMV ([7]; range over HCMV strains): 71–330

Compound: CCCCCCCCCCCCCCCCNC(=O)[C@@H](N)Cc1ccc(OP(=O)(COCCn2cnc(N)nc2=O)Oc2ccc(C[C@H](N)C(=O)NCCCCCCCCCCCCCCCC)cc2)cc1 [Compound 23, Bis(Hexadecylamido-L-tyrosyl) ester of 1-[2-(phosphonomethoxy)ethyl]-5-azacytosine]
- Cytotoxicity MCC (minimum cytotoxic concentration) [1]: 60 ± 57 µM
- Selectivity index (SI, ratio CC50/EC50) HSV [2]: 45–68
- Selectivity index (SI, ratio CC50/EC50) VZV [3]: 47–93
- Selectivity index (SI, ratio CC50/EC50) HCMV [7]: 13–56

Compound: Nc1nc(O)c2ncn(COC(CO)CO)c2n1 [Ganciclovir, reference compound]
- Cytotoxicity MCC (minimum cytotoxic concentration) [1]: >350 µM

Compound: Bis[(isopropoxycarbonyl)oxymethyl] ester of 2,4-diamino-6-[2-(phosphonomethoxy)ethoxy]pyrimidine [Compound 4]
- EC50 [8]: 1.01 ± 0.86 µM
- EC50 [9]: 3.7 ± 3 µM
- EC50 [10]: 0.32 ± 0.37 µM
- EC50 [11]: 0.29 ± 0.19 µM
- EC50 [12]: 90.1 µM
- EC50 [13]: 86.3 ± 5.4 µM
- Anti-vaccinia virus activity (in words) [4]: very low anti-vaccinia virus activity without selectivity
- EC50 [4]: 160 ± 60 µM
- Cytotoxicity MCC (minimum cytotoxic concentration) [1]: >202 µM
- Fold more active than parental drug PMEO-DAPy (HSV) [2]: 6–20 fold
- Selectivity index (SI, ratio CC50/EC50) HSV ([2]; range over HSV strains): 4–15
- Fold more active than parental drug PMEO-DAPy (VZV) [3]: 3–16 fold
- Selectivity index (SI, ratio CC50/EC50) VZV ([3]; range over VZV strains): 15–52
- Selectivity index (SI, ratio CC50/EC50) HCMV ([7]; range over HCMV strains): ≤ 1
- EC50 ([7]; range over HCMV strains, HEL cells): 86 to 90 µM
